Reference: ChEMBL document CHEMBL3044741, “Synthesis of novel biologically active methylene derivatives of sydnones” (Med Chem Res, 2013)
Converted amounts (≈) assume the structure as drawn.

Legend:
[1] = test system: Escherichia coli; assay: Antibacterial activity against Escherichia coli MTCC 443 at 250 ug/ml after 24 hrs by Kirby-Bauer method; format: functional; settings: MTCC 443, 24 h, read-out: IZ
[2] = test system: Staphylococcus aureus; assay: Antibacterial activity against Staphylococcus aureus MTCC 96 after 24 hrs by broth dilution method; format: functional; settings: MTCC 96, 24 h
[3] = test system: Cytomegalovirus; assay: Antiviral activity against Cytomegalovirus AD-169 infected in HEL cells assessed as reduction in plaque formation; format: functional, organism-based; settings: Human betaherpesvirus 5, AD-169, HEL
[4] = test system: Human immunodeficiency virus 2; assay: Antiviral activity against HIV2 ROD infected in MT4 cells assessed as inhibition of virus-induced cytopathogenicity by MTT assay; format: functional, organism-based; settings: Human immunodeficiency virus 2, ISOLATE ROD
[5] = test system: Human alphaherpesvirus 3; assay: Antiviral activity against thymidine kinase-deficient Varicella-zoster virus infected in HEL cells assessed as reduction in plaque formation; format: functional, organism-based; settings: Human alphaherpesvirus 3, HEL
[6] = test system: Candida albicans; assay: Antifungal activity against Candida albicans MTCC 227; format: functional
[7] = test system: Aspergillus clavatus; assay: Antifungal activity against Aspergillus clavatus MTCC 1323 at 250 ug/ml after 74 hrs by Kirby-Bauer method; format: functional; settings: MTCC 1323, 74 h, read-out: IZ
[8] = test system: Escherichia coli; assay: Antibacterial activity against Escherichia coli MTCC 443 after 24 hrs by broth dilution method; format: functional; settings: MTCC 443, 24 h
[9] = test system: Streptococcus pyogenes; assay: Antibacterial activity against Streptococcus pyogenes MTCC 442 after 24 hrs by broth dilution method; format: functional; settings: MTCC 442, 24 h
[10] = test system: Aspergillus niger; assay: Antifungal activity against Aspergillus niger MTCC 282; format: functional
[11] = Cytotoxicity against human HEL cells assessed as alteration in cell morphology; format: cell-based
[12] = test system: Aspergillus niger; assay: Antifungal activity against Aspergillus niger MTCC 282 at 250 ug/ml after 74 hrs by Kirby-Bauer method; format: functional; settings: MTCC 282, 74 h, read-out: IZ
[13] = test system: Human alphaherpesvirus 3; assay: Antiviral activity against Varicella-zoster virus Oka expressing thymidine kinase infected in HEL cells assessed as reduction in plaque formation; format: functional, organism-based; settings: Human alphaherpesvirus 3, strain Oka vaccine
[14] = Cytotoxicity against human MT4 cells by MTT assay; format: cell-based
[15] = test system: Cytomegalovirus; assay: Antiviral activity against Cytomegalovirus Davis in HEL cells assessed as reduction in plaque formation; format: functional, organism-based; settings: Human betaherpesvirus 5, Davis
[16] = test system: Human immunodeficiency virus 1; assay: Antiviral activity against HIV1 3B infected in MT4 cells assessed as inhibition of virus-induced cytopathogenicity by MTT assay; format: functional, organism-based; settings: Human immunodeficiency virus 1, 3B
[17] = test system: Streptococcus pyogenes; assay: Antibacterial activity against Streptococcus pyogenes MTCC 442 at 250 ug/ml after 24 hrs by Kirby-Bauer method; format: functional; settings: MTCC 442, 24 h, read-out: IZ
[18] = test system: Staphylococcus aureus; assay: Antibacterial activity against Staphylococcus aureus MTCC 96 at 250 ug/ml after 24 hrs by Kirby-Bauer method; format: functional; settings: MTCC 96, 24 h, read-out: IZ
[19] = Selectivity index, ratio of CC50 for human MT4 cells to IC50 for HIV1 3B; format: functional
[20] = test system: Candida albicans; assay: Antifungal activity against Candida albicans MTCC 227 at 250 ug/ml after 74 hrs by Kirby-Bauer method; format: functional; settings: MTCC 227, 74 h, read-out: IZ
[21] = Selectivity index, ratio of CC50 for human MT4 cells to IC50 for HIV2 ROD; format: functional
[22] = test system: Pseudomonas aeruginosa; assay: Antibacterial activity against Pseudomonas aeruginosa MTCC 424 after 24 hrs by broth dilution method; format: functional; settings: MTCC 424, 24 h
[23] = test system: Pseudomonas aeruginosa; assay: Antibacterial activity against Pseudomonas aeruginosa MTCC 424 at 250 ug/ml after 24 hrs by Kirby-Bauer method; format: functional; settings: MTCC 424, 24 h, read-out: IZ
[24] = Cytotoxicity against human HEL cells; format: cell-based
[25] = test system: Aspergillus clavatus; assay: Antifungal activity against Aspergillus clavatus MTCC 1323; format: functional

Row | SMILES | zone of inhibition at 250 µg/mL [1] [mm] | MIC [2] [µg/mL] | EC50 [3] [µg/mL] | IC50 [4] [µg/mL] | EC50 [5] [µg/mL] | MIC [6] [µg/mL] | zone of inhibition at 250 µg/mL [7] [mm] | MIC [8] [µg/mL] | MIC [9] [µg/mL] | MIC [10] [µg/mL] | MCC [11] [µg/mL] | zone of inhibition at 250 µg/mL [12] [mm] | EC50 [13] [µg/mL] | CC50 [14] [µg/mL] | EC50 [15] [µg/mL] | IC50 [16] [µg/mL] | zone of inhibition at 250 µg/mL [17] [mm] | zone of inhibition at 250 µg/mL [18] [mm] | Ratio CC50/IC50 [19] | zone of inhibition at 250 µg/mL [20] [mm] | also measured
1 | Cc1ccc(-[n+]2noc([O-])c2CN2CCCCC2)cc1 | 21 | 500 (≈ 1830 µM) | > 20 | > 18.7 | > 20 | 250 (≈ 915 µM) | 25 | 100 (≈ 366 µM) | 200 (≈ 732 µM) | 500 (≈ 1830 µM) | 100 | 24 | > 20 | 18.7 (≈ 68.3 µM) | > 20 | > 18.7 | 18 | 16 | <1 | 21 | Ratio CC50/IC50 [21]: <1; MIC [22]: 250 µg/mL (≈ 915 µM); zone of inhibition at 250 µg/mL [23]: 21 mm; CC50 [24]: 28.5 µg/mL (≈ 104 µM); MIC [25]: 250 µg/mL (≈ 915 µM)
2 | [O-]c1on[n+](-c2ccc(Cc3ccc(-[n+]4noc([O-])c4CN4CCN(c5cccc(Cl)c5)CC4)cc3)cc2)c1CN1CCN(c2cccc(Cl)c2)CC1 | 18 | 250 (≈ 332 µM) | > 4 | > 13.2 | > 4 | 1000 (≈ 1330 µM) | 22 | 250 (≈ 332 µM) | 200 (≈ 265 µM) | 1000 (≈ 1330 µM) | ≥ 20 | 20 | > 4 | 13.2 (≈ 17.5 µM) | 20 (≈ 26.5 µM) | > 13.2 | 19 | 19 | <1 | 21 | Ratio CC50/IC50 [21]: <1; MIC [22]: 500 µg/mL (≈ 663 µM); zone of inhibition at 250 µg/mL [23]: 17 mm; CC50 [24]: > 100 µg/mL; MIC [25]: 1000 µg/mL (≈ 1330 µM)
3 | Cc1ccc(-[n+]2noc([O-])c2CN2CCOCC2)cc1 | 19 | 100 (≈ 363 µM) | > 20 | > 16.6 | > 20 | 500 (≈ 1820 µM) | 21 | 200 (≈ 726 µM) | 250 (≈ 908 µM) | 1000 (≈ 3630 µM) | 100 | 18 | > 20 | 16.6 (≈ 60.2 µM) | > 20 | > 16.6 | 19 | 21 | <1 | 23 | Ratio CC50/IC50 [21]: <1; MIC [22]: 250 µg/mL (≈ 908 µM); zone of inhibition at 250 µg/mL [23]: 18 mm; CC50 [24]: 38.4 µg/mL (≈ 139 µM); MIC [25]: 500 µg/mL (≈ 1820 µM)
4 | [O-]c1on[n+](-c2ccc(Cc3ccc(-[n+]4noc([O-])c4CN4CCN(c5ccccc5)CC4)cc3)cc2)c1CN1CCN(c2ccccc2)CC1 | 20 | 500 (≈ 730 µM) | > 4 | > 10.3 | > 4 | 250 (≈ 365 µM) | 25 | 125 (≈ 183 µM) | 200 (≈ 292 µM) | 1000 (≈ 1460 µM) | ≥ 20 | 20 | > 4 | 10.3 (≈ 15 µM) | > 20 | > 10.3 | 18 | 17 | <1 | 21 | Ratio CC50/IC50 [21]: <1; MIC [22]: 100 µg/mL (≈ 146 µM); zone of inhibition at 250 µg/mL [23]: 22 mm; CC50 [24]: 12 µg/mL (≈ 17.5 µM); MIC [25]: 250 µg/mL (≈ 365 µM)
5 | CC(=O)N1CCN(Cc2c([O-])on[n+]2-c2ccc(Cc3ccc(-[n+]4noc([O-])c4CN4CCN(C(C)=O)CC4)cc3)cc2)CC1 | 18 | 250 (≈ 405 µM) | > 4 | > 12 | > 0.8 | 250 (≈ 405 µM) | 25 | 250 (≈ 405 µM) | 100 (≈ 162 µM) | 1000 (≈ 1620 µM) | 20 | 21 | > 0.8 | 12 (≈ 19.4 µM) | > 4 | > 12 | 16 | 20 | <1 | 23 | Ratio CC50/IC50 [21]: <1; MIC [22]: 200 µg/mL (≈ 324 µM); zone of inhibition at 250 µg/mL [23]: 18 mm; CC50 [24]: 10.2 µg/mL (≈ 16.5 µM); MIC [25]: 250 µg/mL (≈ 405 µM)
6 | Cc1ccc(-[n+]2noc([O-])c2CN2CCN(c3ccccc3)CC2)cc1 | 16 | 250 (≈ 713 µM) | > 20 | > 13.2 | > 4 | 500 (≈ 1430 µM) | 21 | 500 (≈ 1430 µM) | 250 (≈ 713 µM) | 200 (≈ 571 µM) | 100 | 24 | > 4 | 13.2 (≈ 37.8 µM) | > 20 | > 13.2 | 18 | 18 | <1 | 21 | Ratio CC50/IC50 [21]: <1; MIC [22]: 100 µg/mL (≈ 285 µM); zone of inhibition at 250 µg/mL [23]: 20 mm; CC50 [24]: 20 µg/mL (≈ 57.1 µM); MIC [25]: 500 µg/mL (≈ 1430 µM)
7 | [O-]c1on[n+](-c2ccc(Cc3ccc(-[n+]4noc([O-])c4CN4CCN(C5=Nc6ccccc6Sc6ccccc65)CC4)cc3)cc2)c1CN1CCN(C2=Nc3ccccc3Sc3ccccc32)CC1 | 19 | 62.5 (≈ 65.7 µM) | > 20 | > 11.6 | > 4 | 500 (≈ 526 µM) | 23 | 250 (≈ 263 µM) | 250 (≈ 263 µM) | 1000 (≈ 1050 µM) | 100 | 18 | > 4 | 11.6 (≈ 12.2 µM) | > 20 | > 11.6 | 18 | 23 | <1 | 25 | Ratio CC50/IC50 [21]: <1; MIC [22]: 125 µg/mL (≈ 131 µM); zone of inhibition at 250 µg/mL [23]: 21 mm; CC50 [24]: 13.8 µg/mL (≈ 14.5 µM); MIC [25]: 500 µg/mL (≈ 526 µM)
8 | Cc1ccc(-[n+]2noc([O-])c2CN2CCN(C3=Nc4ccccc4Sc4ccccc43)CC2)cc1 | 19 | 200 (≈ 414 µM) | > 4 | > 13.6 | > 20 | 1000 (≈ 2070 µM) | 18 | 250 (≈ 517 µM) | 500 (≈ 1030 µM) | 1000 (≈ 2070 µM) | ≥ 20 | 18 | > 20 | 13.7 (≈ 28.2 µM) | > 20 | > 13.6 | 16 | 19 | <1 | 21 | Ratio CC50/IC50 [21]: <1; MIC [22]: 125 µg/mL (≈ 258 µM); zone of inhibition at 250 µg/mL [23]: 21 mm; CC50 [24]: 14.8 µg/mL (≈ 30.6 µM); MIC [25]: 1000 µg/mL (≈ 2070 µM)
9 | [O-]c1on[n+](-c2ccc(Cc3ccc(-[n+]4noc([O-])c4CN4CCCCC4)cc3)cc2)c1CN1CCCCC1 | 16 | 250 (≈ 471 µM) | > 4 | > 12 | > 4 | 500 (≈ 942 µM) | 21 | 500 (≈ 942 µM) | 125 (≈ 236 µM) | 250 (≈ 471 µM) | ≥ 20 | 23 | > 4 | 12.1 (≈ 22.7 µM) | 20 (≈ 37.7 µM) | > 12 | 20 | 18 | <1 | 22 | Ratio CC50/IC50 [21]: <1; MIC [22]: 125 µg/mL (≈ 236 µM); zone of inhibition at 250 µg/mL [23]: 20 mm; CC50 [24]: 12.6 µg/mL (≈ 23.7 µM); MIC [25]: 500 µg/mL (≈ 942 µM)
10 | [O-]c1on[n+](-c2ccc(Cc3ccc(-[n+]4noc([O-])c4CN4CCN(c5cccc(Cl)c5Cl)CC4)cc3)cc2)c1CN1CCN(c2cccc(Cl)c2Cl)CC1 | 21 | 125 (≈ 152 µM) | 12.6 (≈ 15.3 µM) | > 20.8 | > 4 | 1000 (≈ 1220 µM) | 23 | 125 (≈ 152 µM) | 200 (≈ 243 µM) | 250 (≈ 304 µM) | 100 | 23 | > 4 | 20.8 (≈ 25.3 µM) | > 20 | > 20.8 | 18 | 21 | <1 | 21 | Ratio CC50/IC50 [21]: <1; MIC [22]: 250 µg/mL (≈ 304 µM); zone of inhibition at 250 µg/mL [23]: 17 mm; CC50 [24]: 28.7 µg/mL (≈ 34.9 µM); MIC [25]: 1000 µg/mL (≈ 1220 µM)
